# Laboratory results as given in patent US20250163074A1, “CDK Inhibitors And Their Use As Pharmaceuticals” (Prelude Therapeutics Incorporated, priority 2020, published 2025).
# Read-outs that look alike come from different tables or passages of the source.
# Key:
# [1] = target: CDK4/Cyclin D1 (Homo sapiens (Human), UniProt P11802); test: CDK4/CyclinD1 enzymatic activity assay (TR-FRET); assay type: biochemical; details: CDK4/CyclinD1 1 nM, ATP 2 mM, read-out: CDK4_D1 IC50
# Outline: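 Insect-cell CDK4/Cyclin D1 (1 nM) with ULight-4E-BP1 (100 nM) and 2 mM ATP in HEPES pH 7.4 buffer, preincubated 20 min with compound (9-dose, 3-fold dilutions); 10 mM MgCl2 started the reaction, run 60 min at 37 °C. EDTA/Eu-anti-phospho-4E-BP1 TR-FRET detection; IC50 from 4-parameter Hill fit.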
# [2] = system: MCF7 adenocarcinoma cell line; test: Cell proliferation studies in MCF7 cells (ATP-Lite); assay type: cell-based; details: 10 days incubation, cell viability by ATP-Lite luminescence, read-out: PROLIFERATION_CTG_MCF7 IC50
# Outline: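 MCF7 cells, seeded at 100 or 200 cells/well, were exposed for 10 days at 37 °C to a 9-point, 3-fold dilution series in quadruplicate, with media exchange and re-dosing on day 5. Viability was read by ATP-Lite luminescence, normalized to background and DMSO, and fitted for IC50.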
# [3] = Brain-to-plasma ratio determination in Sprague-Dawley rats; assay type: in vivo; details: male Sprague-Dawley rats, four hours after a single oral dose (3, 4, 5, or 10 mg/kg); for Kp at 4 h: rat
# Protocol: Example B: Brain-to-Plasma Ratio Determination in Sprague-Dawley Rats
# The brain-to-plasma ratio (Kp) was determined in male Sprague-Dawley rats (7-9 weeks old) four hours after a single oral dose. Rats were acclimated and given free access to standard rodent chow and water throughout the entire study. Test articles were formulated as a solution at 0.3, 0.4, 0.5, or 1.0 mg/mL in a vehicle comprised of 10:15:75 (v:v:v) dimethylacetamide (DMA):Solutol HS15:water and delivered orally at a rate of 10 mL/kg to three rats to achieve final doses of 3, 4, 5, or 10 mg/kg, respectively. At 4 hours post-dose, blood samples were collected via jugular vein cannula into tubes containing K2EDTA as the anticoagulant and stored on ice. Blood samples were then centrifuged at 4° C. at 6000 rpm for 5 minutes, and the resulting plasma was placed into tubes and stored frozen at −80° C. until analysis. Whole brain samples were also collected at 4 hours post-dose. The weight of each brain was measured and recorded, and samples were immediately stored on dry ice. Brain samples were then transferred to storage at −80° C. until analysis.
# Prior to analysis, brain samples were combined with water (4 mL/1 gram of brain) and homogenized. Prior to injection, plasma and brain homogenate samples and standards were prepared for analysis by precipitation with acetonitrile or 1:1 (v:v) methanol:acetonitrile. Samples were then thoroughly mixed, centrifuged at 4000 rpm for 15 minutes, and the resulting supernatant was transferred for analysis. Test article concentrations in plasma and brain homogenate were then determined by LC-MS/MS and quantified against calibration standards prepared to known concentrations in matched blank (analyte-free) biological matrix. The Kp was then determined by dividing the dilution-corrected brain concentration by the plasma concentration from each rat. A brain density of 1 gram/mL was assumed for all calculations.
# [4] = target: CDK6/Cyclin D1 (Homo sapiens (Human), UniProt Q00534); test: CDK6/CyclinD1 enzymatic activity assay (TR-FRET); assay type: biochemical; details: CDK6/Cyclin D1 1 nM, ATP 250 μM, read-out: CDK6_D1 IC50
# Chain of CDK6/Cyclin D1 (Q00534 whole entry): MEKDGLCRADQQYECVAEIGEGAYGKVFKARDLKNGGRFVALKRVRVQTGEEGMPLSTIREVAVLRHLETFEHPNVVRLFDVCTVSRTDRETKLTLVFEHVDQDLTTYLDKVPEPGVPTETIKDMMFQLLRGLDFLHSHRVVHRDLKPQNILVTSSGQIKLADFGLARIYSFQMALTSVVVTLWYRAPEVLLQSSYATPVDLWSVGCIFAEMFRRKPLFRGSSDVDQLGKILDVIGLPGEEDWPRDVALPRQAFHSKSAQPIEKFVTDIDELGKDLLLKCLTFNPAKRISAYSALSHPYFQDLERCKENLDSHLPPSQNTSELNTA
# Chain of CDK6/Cyclin D1 (P24385 whole entry partner): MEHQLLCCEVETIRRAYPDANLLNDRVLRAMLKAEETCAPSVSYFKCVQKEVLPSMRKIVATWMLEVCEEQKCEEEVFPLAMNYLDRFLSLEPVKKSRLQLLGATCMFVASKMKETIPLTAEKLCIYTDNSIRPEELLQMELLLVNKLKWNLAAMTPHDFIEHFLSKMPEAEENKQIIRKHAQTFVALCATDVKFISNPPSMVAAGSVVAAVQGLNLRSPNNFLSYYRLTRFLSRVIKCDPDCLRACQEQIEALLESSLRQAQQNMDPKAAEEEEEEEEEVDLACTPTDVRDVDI
# Outline: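 Insect-cell-expressed CDK6/Cyclin D1 (1 nM) phosphorylated ULight-4E-BP1 (100 nM) with 250 μM ATP in HEPES pH 7.4 buffer. After 20 min compound preincubation, reactions were started with 10 mM MgCl2 and run 60 min at 37 °C. EDTA-quenched samples were read by TR-FRET with Eu-anti-P-4E-BP1; IC50 from 9-dose 4-parameter fits.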
# Chain of CDK4/Cyclin D1 (P11802 whole entry): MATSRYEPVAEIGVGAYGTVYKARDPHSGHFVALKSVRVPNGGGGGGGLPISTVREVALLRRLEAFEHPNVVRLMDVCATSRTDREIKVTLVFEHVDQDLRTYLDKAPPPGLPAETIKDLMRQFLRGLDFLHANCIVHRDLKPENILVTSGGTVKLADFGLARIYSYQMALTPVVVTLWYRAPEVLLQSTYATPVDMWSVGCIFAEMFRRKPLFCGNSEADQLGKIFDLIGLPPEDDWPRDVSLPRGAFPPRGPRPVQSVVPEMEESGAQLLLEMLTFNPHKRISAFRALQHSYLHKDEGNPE
# Chain of CDK4/Cyclin D1 (P24385 whole entry partner): as the sequence (P24385 whole entry partner) above
smiles,measurement,setting,value
"Cc1c(-c2nc(Nc3ccc(C4CCN(C(C)C)C4)cn3)ncc2F)sc2c1C(=O)N(C)C21CC1 (stereo not drawn) [Example 16, 2′-(5-Fluoro-2-((5-(1-isopropylpyrrolidin-3-yl)pyridin-2-yl)amino)pyrimidin-4-yl)-3′,5′-dimethylspiro[cyclopropane-1,6′-thieno[2,3-c]pyrrol]-4′(5′H)-one]",IC50,[1],≤ 0.02 µM
same,IC50,"[2]; Homo sapiens, 240 h",0.02 to 0.2 µM
same,Kp at 4 h,[3],< 1
same,IC50,[4],≤ 0.02 µM
"CN1CCC(c2ccc(Nc3ncc(F)c(-c4cc5c(s4)C4(CCCC4)N(C)C5=O)n3)nc2)CC1 [Example 20, 2′-(5-Fluoro-2-((5-(1-methylpiperidin-4-yl)pyridin-2-yl)amino)pyrimidin-4-yl)-5′-methylspiro[cyclopentane-1,6′-thieno[2,3-c]pyrrol]-4′(5′H)-one]",IC50,[1],≤ 0.02 µM
same,IC50,"[2]; Homo sapiens, 240 h",≤ 0.02 µM
same,Kp at 4 h,[3],≥ 3
same,IC50,[4],≤ 0.02 µM
CCN1CC2(C1)CN(c1ccc(Nc3ncc(F)c(-c4cc5c(s4)C4(CCCC4)N(C)C5=O)n3)nc1)C2 [Example 24],IC50,[1],≤ 0.02 µM
same,IC50,[2],0.02 to 0.2 µM
same,Kp,[3],++ (a “++” denotes 1.0 ≤ Kp < 3.0)
same,IC50,[4],≤ 0.02 µM
"Cc1c(-c2nc(Nc3ccc(C4CCN(C)CC4)cn3)ncc2F)sc2c1C(=O)N(C)C21CCCC1 [Example 25, 2′-(5-Fluoro-2-((5-(1-methylpiperidin-4-yl)pyridin-2-yl)amino)pyrimidin-4-yl)-3′,5′-dimethylspiro[cyclopentane-1,6′-thieno[2,3-c]pyrrol]-4′(5′H)-one]",IC50,[1],≤ 0.02 µM
same,IC50,"[2]; Homo sapiens, 240 h",≤ 0.02 µM
same,Kp at 4 h,[3],1 to 3
same,IC50,[4],≤ 0.02 µM
Cc1c(-c2nc(Nc3ccc(C4CCN(C)CC4)cn3)ncc2F)sc2c1C(=O)N(C)CC21CC1 [Example 28],IC50,[1],≤ 0.02 µM
same,IC50,"[2]; Homo sapiens, 240 h",0.02 to 0.2 µM
same,Kp at 4 h,[3],≥ 3
same,IC50,[4],≤ 0.02 µM
"CN1CCC(c2ccc(Nc3ncc(F)c(-c4cc5c(s4)C4(CC4)CN(C)C5=O)n3)nc2)CC1 [Example 29, 2′-(5-Fluoro-2-((5-(1-methyl-piperidin-4-yl)pyridin-2-yl)amino)pyrimidin-4-yl)-5′-methyl-5′,6′-dihydro-4′H-spiro[cyclo-propane-1,7′-thieno[3,2-c]pyridin]-4′-one]",IC50,[1],≤ 0.02 µM
same,IC50,"[2]; Homo sapiens, 240 h",0.02 to 0.2 µM
same,Kp at 4 h,[3],1 to 3
same,IC50,[4],0.02 to 0.2 µM
Cc1c(-c2nc(Nc3ccc(N4CC5(CCN(C)C5)C4)cn3)ncc2F)sc2c1C(=O)N(C)CC21CC1 [Example 35],IC50,[1],≤ 0.02 µM
same,IC50,"[2]; Homo sapiens, 240 h",≤ 0.02 µM
same,Kp at 4 h,[3],1 to 3
same,IC50,[4],≤ 0.02 µM
"CCN1C[C@H]2CN(c3ccc(Nc4ncc(F)c(-c5sc6c(c5C)C(=O)N(C)CC65CC5)n4)nc3)C[C@@H]2C1 [Example 39, 2′-(2-((5-((3aS,6aS)-5-Ethylhexahydropyrrolo[3,4-c]pyrrol-2(1H)-yl)pyridin-2-yl)amino)-5-fluoropyrimidin-4-yl)-3′,5′-dimethyl-5′,6′-dihydro-4′H-spiro[cyclopropane-1,7′-thieno[3,2-c]pyridin]-4′-one]",IC50,[1],≤ 0.02 µM
same,IC50,"[2]; Homo sapiens, 240 h",0.02 to 0.2 µM
same,Kp at 4 h,[3],1 to 3
same,IC50,[4],≤ 0.02 µM
"CCN1CC2(C1)CN(c1ccc(Nc3ncc(C)c(-c4cc5c(s4)C4(CC4)CN(C)C5=O)n3)nc1)C2 [Example 41, 2-[2-[[5-(6-Ethyl-2,6-diazaspiro[3.3]heptan-2-yl)pyridin-2-yl]amino]-5-methylpyrimidin-4-yl]-5-methylspiro[6H-thieno[3,2-c]pyridine-7,1′-cyclopropane]-4-one]",IC50,[1],≤ 0.02 µM
same,IC50,"[2]; Homo sapiens, 240 h",≤ 0.02 µM
same,Kp at 4 h,[3],< 1
same,IC50,[4],≤ 0.02 µM
"CN1CCC(c2ccc(Nc3ncc(F)c(-c4cc5c(s4)C4(CCC4)CN(C)C5=O)n3)nc2)CC1 [Example 47, 2′-(5-Fluoro-2-((5-(1-methyl-piperidin-4-yl)pyridin-2-yl)amino)pyrimidin-4-yl)-5′-methyl-5′,6′-dihydro-4′H-spiro[cyclobutane-1,7′-thieno[3,2-c]pyridin]-4′-one]",IC50,[1],≤ 0.02 µM
same,IC50,"[2]; Homo sapiens, 240 h",0.02 to 0.2 µM
same,Kp at 4 h,[3],1 to 3
same,IC50,[4],0.02 to 0.2 µM
"Cc1c(-c2nc(Nc3ccc(C4CCN(C)CC4)cn3)ncc2F)sc2c1C(=O)N(C)CC21CCC1 [Example 48, 2′-(5-Fluoro-2-((5-(1-methyl-piperidin-4-yl)pyridin-2-yl)amino)pyrimidin-4-yl)-3′,5′-dimethyl-5′,6′-dihydro-4′H-spiro[cyclobutane-1,7′-thieno[3,2-c]pyridin]-4′-one]",IC50,[1],≤ 0.02 µM
same,IC50,"[2]; Homo sapiens, 240 h",0.02 to 0.2 µM
same,Kp at 4 h,[3],≥ 3
same,IC50,[4],≤ 0.02 µM
"CN1CCN(c2ccc(Nc3ncc(F)c(-c4cc5c(s4)C4(CCC4)CN(C)C5=O)n3)nc2)CC1 [Example 50, 2′-(5-Fluoro-2-((5-(4-methyl-piperazin-1-yl)pyridin-2-yl)amino)pyrimidin-4-yl)-5′-methyl-5′,6′-dihydro-4′H-spiro[cyclobutane-1,7′-thieno[3,2-c]pyridin]-4′-one]",IC50,[1],≤ 0.02 µM
same,IC50,"[2]; Homo sapiens, 240 h",0.02 to 0.2 µM
same,Kp at 4 h,[3],≥ 3
same,IC50,[4],≤ 0.02 µM
"Cc1c(-c2nc(Nc3ccc(N4CCC5(CCN(C)C5)C4)cn3)ncc2F)sc2c1C(=O)N(C)CC21CCC1 (stereo not drawn) [Example 55, 2′-(5-Fluoro-2-((5-(7-methyl-2,7-diazaspiro[4.4]nonan-2-yl)pyridin-2-yl)amino)pyrimidin-4-yl)-3′,5′-dimethyl-5′,6′-dihydro-4′H-spiro[cyclobutane-1,7′-thieno[3,2-c]pyridin]-4′-one]",IC50,[1],≤ 0.02 µM
same,IC50,"[2]; Homo sapiens, 240 h",0.02 to 0.2 µM
same,Kp at 4 h,[3],< 1
same,IC50,[4],≤ 0.02 µM
"Cc1cnc(Nc2ccc(C3CCN(C)CC3)cn2)nc1-c1cc2c(s1)C1(CCC1)CN(C)C2=O [Example 59, 5-Methyl-2-[5-methyl-2-[[5-(1-methylpiperidin-4-yl)pyridin-2-yl]amino]pyrimidin-4-yl]spiro[6H-thieno[3,2-c]pyridine-7,1′-cyclobutane]-4-one]",IC50,[1],≤ 0.02 µM
same,IC50,"[2]; Homo sapiens, 240 h",≤ 0.02 µM
same,Kp at 4 h,[3],1 to 3
same,IC50,[4],≤ 0.02 µM
"Cc1c(-c2nc(Nc3ccc(C4CCN(C)CC4)cn3)ncc2F)sc2c1C(=O)N(C)CC21CCCC1 [Example 63, 2′-(5-Fluoro-2-((5-(1-methyl-piperidin-4-yl)pyridin-2-yl)amino)pyrimidin-4-yl)-3′,5′-dimethyl-5′,6′-dihydro-4′H-spiro[cyclopentane-1,7′-thieno[3,2-c]pyridin]-4′-one]",IC50,[1],≤ 0.02 µM
same,IC50,"[2]; Homo sapiens, 240 h",0.02 to 0.2 µM
same,Kp at 4 h,[3],≥ 3
same,IC50,[4],≤ 0.02 µM
"CCN1CC2(C1)CN(c1ccc(Nc3ncc(F)c(-c4ccc5c(c4)C4(CCCC4)CN(C)C5=O)n3)nc1)C2 [Example 66, 6′-(2-((5-(6-Ethyl-2,6-diazaspiro[3.3]heptan-2-yl)pyridin-2-yl)amino)-5-fluoropyrimidin-4-yl)-2′-methyl-2′,3′-dihydro-1′H-spiro[cyclopentane-1,4′-isoquinolin]-1′-one]",IC50,[1],≤ 0.02 µM
same,IC50,"[2]; Homo sapiens, 240 h",0.02 to 0.2 µM
same,Kp at 4 h,[3],1 to 3
same,IC50,[4],0.02 to 0.2 µM
"CN1CCC(c2ccc(Nc3ncc(F)c(-c4ccc5c(c4)C4(CCCC4)CN(C)C5=O)n3)nc2)CC1 [Example 67, 6′-(5-Fluoro-2-((5-(1-methyl-piperidin-4-yl)pyridin-2-yl)amino)pyrimidin-4-yl)-2′-methyl-2′,3′-dihydro-1′H-spiro[cyclopentane-1,4′-isoquinolin]-1′-one]",IC50,[1],≤ 0.02 µM
same,IC50,"[2]; Homo sapiens, 240 h",0.02 to 0.2 µM
same,Kp at 4 h,[3],≥ 3
same,IC50,[4],0.02 to 0.2 µM
"CCN1CCC(c2ccc(Nc3ncc(F)c(-c4sc5c(c4C)C(=O)N(C)C54CC4)n3)nc2)C1 (stereo not drawn) [Example 71, 2′-[2-[[5-(1-Ethylpyrrolidin-3-yl)pyridin-2-yl]amino]-5-fluoropyrimidin-4-yl]-3′,5′-dimethylspiro[cyclopropane-1,6′-thieno[2,3-c]pyrrole]-4′-one]",IC50,[1],≤ 0.02 µM
same,IC50,"[2]; Homo sapiens, 240 h",0.02 to 0.2 µM
same,Kp at 4 h,[3],1 to 3
same,IC50,[4],≤ 0.02 µM
